# Test results as given in patent US11559538B2, “Substituted 1,2-oxaborolan-2-ols as PDE4 inhibitors” (Pfizer Inc., priority 2018, dated 2023).
# Where two headings read alike, the source gives them in different places.
# Legend:
# [1] = molecular target: PDE4B (aa 152-484, Uniprot ID Q07343) (Homo sapiens (Human), UniProt Q07343); test: PDE4 SPA assay (scintillation proximity assay); assay type: biochemical; conditions: read-out: PDE4B2 IC50
# Summary of the method: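 PDE4B (aa 152-484, ~81.6 pM) preincubated ~10 min with compound, then 1 μM ³H/unlabeled cAMP added in Tris pH 7.5, 1.3 mM MgCl2, 0.004% Brij 35, ~2% DMSO; 30 min at RT. Product captured on SPA beads and counted; IC50 by four-parameter logistic fit.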
# IL-4 = test: Cytokine assay: IL-4 release from PHA-L stimulated human PBMCs; assay type: cell-based; conditions: read-out: IL4 IC50
# Summary of the method: (§1)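 IC50 values came from four-parameter logistic fits of supernatant cytokine, which was quantified by HTRF. Mitogen stimulation used PHA-L at a final 3.5 μg/mL on about 250,000 thawed human PBMCs per well, in serum-containing RPMI medium with 0.25% DMSO, for 48 h.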
# IL-13 = test: Cytokine assay: IL-13 release from PHA-L stimulated human PBMCs; assay type: cell-based; conditions: read-out: IL13 IC50
# Summary of the method: as §1
# IFNγ = test: Cytokine assay: IFNγ release from PHA-L stimulated human PBMCs; assay type: cell-based
# Summary of the method: as §1
# [2] = In-vitro skin permeation study (Franz cell assay); assay type: in vitro ADME; conditions: N=15 (3 skin donors, 5 replicates per donor)
# Protocol: Topical formulations prepared containing Example 4 that were tested for skin permeability and maximum flux of Example 4 are listed in Table 13.
# A higher driving force can be achieved via incorporation into the formulations of additional penetration enhancers such as oleyl alcohol.
# [3] = 0.01% Example 4 ointment formulation from Table 13
# [4] = 0.1% Example 4 ointment formulation from Table 13
# [5] = 1% Example 4 ointment formulation from Table 13
# PDE4B (aa 152-484, Uniprot ID Q07343), sequence (Q07343 324-656): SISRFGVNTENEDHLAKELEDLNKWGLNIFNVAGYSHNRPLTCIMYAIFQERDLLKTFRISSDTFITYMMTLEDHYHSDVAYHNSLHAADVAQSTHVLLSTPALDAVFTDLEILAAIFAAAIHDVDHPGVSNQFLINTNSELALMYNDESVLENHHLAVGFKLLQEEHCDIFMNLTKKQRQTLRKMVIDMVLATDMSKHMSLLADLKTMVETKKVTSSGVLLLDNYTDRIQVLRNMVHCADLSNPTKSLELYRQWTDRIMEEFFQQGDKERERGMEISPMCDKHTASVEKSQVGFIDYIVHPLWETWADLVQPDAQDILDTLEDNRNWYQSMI
Compound,IC50 [1] [nM],"IC50 (IL-4; Homo sapiens, PBMC) [nM]","IC50 (IL-13; Homo sapiens, PBMC) [nM]","IC50 (IFNγ; Homo sapiens, PBMC) [nM]",also measured
"CCOc1cc(-c2cncc(C3COB(O)C3)c2)cc(F)c1OC (centres unmarked) [Example 44, 4-(5-(3-ethoxy-5-fluoro-4-methoxyphenyl)pyridin-3-yl)-1,2-oxaborolan-2-ol]",2.5,7.22,167,1.34,–
"CCOc1cc(-c2cncc([C@H]3COB(O)C3)c2)ccc1OC [Example 2, (S)-4-(5-(3-ethoxy-4-methoxyphenyl)pyridin-3-yl)-1,2-oxaborolan-2-ol]",0.67,210,1350,2.73,–
"CCOc1cc(-c2cncc(C3COB(O)C3)c2C)c(F)cc1OC (single isomer, unassigned) [Example 143, 4-(5-(5-ethoxy-2-fluoro-4-methoxyphenyl)-4-methylpyridin-3-yl)-1,2-oxaborolan-2-ol]",2.71,–,–,–,IC50 (IL-4): 4.11 nM; IC50 (IL-13): 1160 nM; IC50 (IFNγ): 3.68 nM
"COc1ccc(-c2cncc(C3COB(O)C3)c2)cc1OC1CC1 (single isomer, unassigned) [Example 7, 4-(5-(3-cyclopropoxy-4-methoxyphenyl)pyridin-3-yl)-1,2-oxaborolan-2-ol]",0.97,–,–,–,IC50 (IL-4): 7.76 nM; IC50 (IL-13): 289 nM; IC50 (IFNγ): 0.71 nM
"CCCOc1cc(-c2cc(C3CB(O)OC3C)cnn2)ccc1OC (centres unmarked) [Example 30, 4-(6-(4-methoxy-3-propoxyphenyl)pyridazin-4-yl)-5-methyl-1,2-oxaborolan-2-ol]",15.5,70.7,10000,11.6,–
"CCOc1cc(-c2cc(C(F)(F)F)cc(C3COB(O)C3)n2)ccc1OC (centres unmarked) [Example 220, 4-(6-(3-ethoxy-4-methoxyphenyl)-4-(trifluoromethyl)pyridin-2-yl)-1,2-oxaborolan-2-ol]",3.29,540,2130,2.37,–
"COc1ccc(-c2cncc(C3COB(O)C3)c2)cc1OC(C)C (centres unmarked) [Example 35, 4-(5-(3-isopropoxy-4-methoxyphenyl)pyridin-3-yl)-1,2-oxaborolan-2-ol]",1.17,6.98,230,1.55,–
"CCOc1ccc(-c2cncc(C3COB(O)C3)c2)cc1OCC (single isomer, unassigned) [Example 98, 4-(5-(3,4-diethoxyphenyl)pyridin-3-yl)-1,2-oxaborolan-2-ol]",1.13,–,–,–,IC50 (IL-4): 219 nM; IC50 (IL-13): 2800 nM; IC50 (IFNγ): 2.67 nM
"COc1ccc(-c2cncc(C3COB(O)C3)c2)cc1OC1CCSC1 (centres unmarked) [Example 78, 4-(5-(4-methoxy-3-((tetrahydrothiophen-3-yl)oxy)phenyl)pyridin-3-yl)-1,2-oxaborolan-2-ol]",0.55,19.1,–,–,IC50 (IL-13): 416 nM; IC50 (IFNγ): 1.35 nM
"COc1ccc(-c2cccc(C3COB(O)C3)n2)cc1OC1CCCC1 (single isomer, unassigned) [Example 66, 4-(6-(3-(cyclopentyloxy)-4-methoxyphenyl)pyridin-2-yl)-1,2-oxaborolan-2-ol]",2.15,86.5,–,–,IC50 (IL-13): 327 nM; IC50 (IFNγ): 0.71 nM
"CCOc1cc(-c2cc(C3COB(O)C3)cnc2CC)ccc1OC (centres unmarked) [Example 171, 4-(5-(3-ethoxy-4-methoxyphenyl)-6-ethylpyridin-3-yl)-1,2-oxaborolan-2-ol]",1.73,2.43,1350,3.22,–
"CCCOc1c(OC)ccc(-c2cncc(C3COB(O)C3)n2)c1F (centres unmarked) [Example 215, 4-(6-(2-fluoro-4-methoxy-3-propoxyphenyl)pyrazin-2-yl)-1,2-oxaborolan-2-ol]",2.58,62.7,2050,2.18,–
"COc1ccc(-c2cncc(C3COB(O)C3)c2)cc1OC (centres unmarked) [Example 32, 4-(5-(3,4-dimethoxyphenyl)pyridin-3-yl)-1,2-oxaborolan-2-ol]",13,64,2250,8.47,–
"COc1cc(-c2ccc(OC)c(OC)c2)cc(C2COB(O)C2)c1 (centres unmarked) [Example 157, 4-(3′,4′,5-trimethoxy-[1,1′-biphenyl]-3-yl)-1,2-oxaborolan-2-ol]",2.96,190,906,5.62,–
"CCCOc1c(OC)ccc(-c2cncc(C3COB(O)C3)n2)c1F (single isomer, unassigned; enantiomer 1) [Example 216, 4-(6-(2-fluoro-4-methoxy-3-propoxyphenyl)pyrazin-2-yl)-1,2-oxaborolan-2-ol, enantiomer 1]",4.05,19.6,2860,1.94,–

# Further lines, with some results ahead:
IC50 [1] [nM],"IC50 (IL-4; Homo sapiens, PBMC) [nM]","IC50 (IL-13; Homo sapiens, PBMC) [nM]","IC50 (IFNγ; Homo sapiens, PBMC) [nM]",Compound,also measured
0.5,4.11,135,1.06,"CCCOc1cc(-c2cncc([C@@H]3COB(O)C3)c2)ccc1OC [Example 4, (R) 4-(5-(4-methoxy-3-propoxyphenyl)pyridin-3-yl)-1,2-oxaborolan-2-ol]","Mean, Cumulative Amount in 24 hours [2, 3]: 233.0 ng; Mean, Max. Flux [2, 3]: 20.14 ng/cm^2/hr; Mean, Cumulative Amount in 24 hours [2, 4]: 1089.9 ng; Mean, Max. Flux [2, 4]: 73.95 ng/cm^2/hr; Mean, Cumulative Amount in 24 hours [2, 5]: 3357.7 ng; Mean, Max. Flux [2, 5]: 252.28 ng/cm^2/hr"
4.04,34.5,3340,24.6,"COc1ccc(-c2cccc(C3=CB(O)OC3)c2)cc1OC1CCCC1 [Example 129, 4-(3′-(cyclopentyloxy)-4′-methoxy-[1,1′-biphenyl]-3-yl)-1,2-oxaborol-2(5H)-ol]",–
4.29,5.2,1670,8.51,"CCCOc1cc(-c2cc(C3COB(O)C3)cc(CO)n2)ccc1OC (centres unmarked) [Example 202, 4-(2-(hydroxymethyl)-6-(4-methoxy-3-propoxyphenyl)pyridin-4-yl)-1,2-oxaborolan-2-ol]",–
10.3,15.3,668,7.24,"CCCOc1cc(-c2nc(C3COB(O)C3)ccc2F)ccc1OC (centres unmarked) [Example 135, 4-(5-fluoro-6-(4-methoxy-3-propoxyphenyl)pyridin-2-yl)-1,2-oxaborolan-2-ol]",–
0.28,–,–,–,"CCCOc1nc(-c2cncc(C3COB(O)C3)c2)ccc1OC (single isomer, unassigned) [Example 62, 4-(5-methoxy-6-propoxy-[2,3′-bipyridin]-5′-yl)-1,2-oxaborolan-2-ol]",IC50 (IL-4): 2.66 nM; IC50 (IL-13): 2570 nM; IC50 (IFNγ): 1.44 nM
2.64,195,2730,2.9,"CCOc1cc(-c2cncc(C3=CB(O)OC3)c2)ccc1OC [Example 229, 4-(5-(3-ethoxy-4-methoxyphenyl)pyridin-3-yl)-1,2-oxaborol-2(5H)-ol]",–
7.26,105,1330,5,"CCCOc1c(OC)ccc(-c2cccc(C3COB(O)C3)n2)c1C#N (centres unmarked) [Example 86, 6-(6-(2-hydroxy-1,2-oxaborolan-4-yl)pyridin-2-yl)-3-methoxy-2-propoxybenzonitrile]",–
1.81,293,2600,5.64,"CCCOc1nc(-c2cccc(C3=CB(O)OC3)c2)ccc1OC [Example 155, 4-(3-(5-methoxy-6-propoxypyridin-2-yl)phenyl)-1,2-oxaborol-2(5H)-ol]",–
